Measurements taken from patent US20120237552A1, “Peptoid Agonists of Nerve Growth Factor and Their Use as Medicaments” (priority 2009, published 2012).
Entries after “also recorded” stand apart in the source; their conditions may differ.

Assays:
[1] = system: PC12 cells; assay: PC12 cell differentiation (neurite outgrowth); format: cell-based, rat; details: 3 days, peptoids 2 ng/ml to 50 μg/ml, reduced serum (0.5% FBS and 1% HS); compared with NGF 100 ng/ml
Procedure: PC 12 cell differentiation was measured by plating cells onto collagen-coated 24-wells plates. NGF (100 ng/ml) or the small chemicals at different concentrations were added and the percentage of cells with neurite processes greater than two cell bodies in length were counted after relevant treatment. For each experiment at least 300 cells were randomly measured (Burstein and Greene, 1978).
PC12 cells were maintained at 37° C. in DMEM supplemented with 2.5% FBS, 15% of Horse serum (HS) and penicillin/streptomycin in a humidified 5% CO2 incubator. The cells were grown on 60- and 100-mm tissue culture dishes (Becton Dickinson).
PC 12 cells were cultured for 3 days in the presence of the peptoids (from 2 ng/ml to 50 μg/ml) under reduced serum conditions (0.5% FBS and 1% HS).

[2] = system: RN22 cells; assay: RN22 cell survival under CuSO4 stress (MTT); format: cell-based, rat; details: CuSO4 150 μM, 24 h, peptoids 1 ng/ml-10 μg/ml; compared with NGF 100 ng/ml
Procedure: The library was also tested to assess their capacity to promote cell survival of myelin producing cells. To delineate p75 signalling independent of TrkA, we used a rat schwannoma cell line (RN22) expressing p75, but not TrkA, (Gentry et al., 2000).
The rat schawnnoma cell line RN22 was cultured in 5% CO2 at 37° C. in Dulbecco's modified Eagle's medium (DMEM) with 10% fetal bovine serum (FBS) and penicillin/streptomycin.
RN22 cells were plated at 20,000 cells/well on a 24-well plate in DMEM alone and after allowing the cells to adhere for 3 days, cupper sulphate (CuSO4) (150 μM) was added with or without NGF (100 ng/ml) or the peptoids N35-4-8C, N6-4-17C and N35-4-17C at different concentrations (1 ng/ml-10 μg/ml) to generate stress and cell death. After 24 h cell viability was studied by determining the amount of yellow MTT (Sigma) that was reduced to insoluble purple formazan. After removing the medium, the water-insoluble formazan was solubilised with DMSO (Sigma), and the dissolved material was measured spectrophotometrically at a wavelength of 570 nm, subtracting the background at 650 nm (Frade, 2005).

[3] = system: C57BL/6 EAE mice; assay: Experimental autoimmune encephalomyelitis (EAE) clinical score; format: in vivo; details: daily intraperitoneal
Procedure: Trials were approved by the Parc Cientific de Barcelona Committee on Animal Care. Female C57BL/6 mice from Harlan (8-12 weeks old) were immunized subcutaneously in both hind pads with 300 μg of myelin oligodendrocyte glycoprotein (MOG) peptide 35-55 (Spikem, Firenze) emulsified with 50 μg of Mycobacterium tuberculosis (H37Ra strain; Difco, Detroit, Mich.) in incomplete Freund's adjuvant (IFA) as previously described (Adams et al. 2007). Mice were intraperitoneally injected with Pertussis toxin (Sigma)(500 ng) at the time of immunization and 2 days later. Animals were weighted and inspected for clinical signs of disease on a daily basis by a blinded observer. Disease severity of EAE was assessed according to the following scale: 0=normal; 0.5=mild limp tail; 1=limp tail; 2=mild parapesis of the hind limbs, unsteady gait; 3=moderate parapesis, voluntary movements still possible; 4=paraplegia or tetraparesis; 5=moribund state. Data shown for the clinical studies are representative of two independent experiments performed with the indicated number of animals (Moreno et al., 2006).
(§1) The agonist molecules selected for the animal studies, N35-4-8C, N6-4-17C and N35-4-17C, were prepared in water with 5% DMSO. Animals were treated with the agonist molecule (25, 50 and 100 mg/kg) or placebo (water+5% DMSO) through daily intraperitoneal injection starting after immunization. At the end of the study, mice were anesthetized and perfused intracardially with 4% of paraformaldehyde in 0.1M phosphate buffer (pH 7.6). Brains, spinal cords and spleens were dissected and either fixed or frozen until use. Serum was obtained from all animals included in the study, and transaminases levels were measured.
In order to evaluate the effects of the NGF-like peptoids “in vivo”, we studied the effect of the NGF-mimetic peptoids in the animal model of MS. C57BL/6 mice immunized with MOG35-55 peptide were treated daily with N35-4-8C, N6-4-17C and N35-4-17C intraperitoneally from day 0 to day 25 at a different concentrations of the compound. N35-4-8C was tested at 3 different concentrations selected in base to previous experiments using agonist molecules in animal models: 25 mg/kg, 50 mg/kg and 100 mg/kg. […] N35-4-17C was also tested at the same concentrations. […] Moreover, the treatment had higher clinical scores with a clear worsening in the progression of the disease (FIG. 4C).

[4] = Serum transaminases levels in treated EAE mice; format: in vivo; details: daily intraperitoneal treatment, N35-4-17C at the higher concentrations
Procedure: as §1

[5] = molecular target: T1, TrkA (Rattus norvegicus, UniProt P35739); assay: TrkA phosphorylation in PC12 cells (western blot); format: cell-based; details: 100 ng/ml, time course
T1 construct: we analyzed their capacity to induce TrkA phosphorylation in PC12 cells; endogenous in cells; host or cells: PC12 cells
Procedure: Activation of TrkA is the first event in the signalling cascade leading to differentiation and survival of NGF responsive neurons and PC12 cells (Greene and Tischler, 1976; Chao, 2003; Huang and Reichardt, 2003). To evaluate whether the neurotrophic activity of NGF-like peptoids was mediated by the interaction with TrkA receptor, we analyzed their capacity to induce TrkA phosphorylation in PC12 cells. The activity of peptoids was tested in the range of concentrations that were effective on PC12 cells differentiation.
Western Blot Analysis. Subconfluent cells were grown overnight in medium containing 2% FBS and 1% HS and stimulated with 100 ng/ml NGF or the NGF-like small chemicals for the indicated time points. Cells were then washed with cold phosphate-buffered saline (PBS) and briefly sonicated in SDS sample buffer (containing β-mercaptoethanol and 2 mM PMSF). Lysates (200 μg of total proteins) were separated on SDS-PAGE, and transferred to nitrocellulose (Whatman, Dassel, Germany). […]

[6] = system: IκBα; assay: IκBα phosphorylation / NF-κB pathway activation in PC12 and RN22 cells (western blot); format: cell-based, rat; details: 100 ng/ml
Procedure: (§2) Western Blot Analysis. Subconfluent cells were grown overnight in medium containing 2% FBS and 1% HS and stimulated with 100 ng/ml NGF or the NGF-like small chemicals for the indicated time points. Cells were then washed with cold phosphate-buffered saline (PBS) and briefly sonicated in SDS sample buffer (containing β-mercaptoethanol and 2 mM PMSF). Lysates (200 μg of total proteins) were separated on SDS-PAGE, and transferred to nitrocellulose (Whatman, Dassel, Germany). After blocking with 5% nonfat milk in TBST buffer (10 mM Tris pH 7.5; 150 mM NaCl/0.2% Tween 20), blots were probed overnight at 4° C. with anti-p-TrkA (Tyr 490) antibody (1:1000), anti TrkA antibody (1:1000), anti-p-IκBα (Ser 32/36)(5A5) mouse antibody (1/1000), anti IκBα (L35A5) mouse antibody (1:1000), anti-p-SAPK/JNK (Thr183/Tyr185) antibody (1:1000) or anti-SAPK/JNK antibody (1/1000)(all of them from Cell Signaling), followed by incubation with HRP-conjugated IgG (Jackson ImmunoResearch) for 1 h at room temperature (RT). Detection of phosphorylated species was performed by using the enhanced chemiluminescence (ECL) system (GE Healthcare Bio-Sciences, Piscataway, N.J.).
To investigate whether our NGF-like small chemicals activate p75 we analyzed the activation of the NF-κB pathway (Bonizzi G, Karin M. 2004) and the SAPK/JNK pathway (cell death) in PC12 and RN22 cell lines. […]

[7] = system: SAPK/JNK; assay: SAPK/JNK phosphorylation in RN22 cells (western blot); format: cell-based, rat; details: 100 ng/ml
Procedure: as §2
In several neuronal systems, JNK activation has been causally linked with the induction of programmed cell death (Bhakar et al., 2003). […]

T1 sequence (P35739 33-799): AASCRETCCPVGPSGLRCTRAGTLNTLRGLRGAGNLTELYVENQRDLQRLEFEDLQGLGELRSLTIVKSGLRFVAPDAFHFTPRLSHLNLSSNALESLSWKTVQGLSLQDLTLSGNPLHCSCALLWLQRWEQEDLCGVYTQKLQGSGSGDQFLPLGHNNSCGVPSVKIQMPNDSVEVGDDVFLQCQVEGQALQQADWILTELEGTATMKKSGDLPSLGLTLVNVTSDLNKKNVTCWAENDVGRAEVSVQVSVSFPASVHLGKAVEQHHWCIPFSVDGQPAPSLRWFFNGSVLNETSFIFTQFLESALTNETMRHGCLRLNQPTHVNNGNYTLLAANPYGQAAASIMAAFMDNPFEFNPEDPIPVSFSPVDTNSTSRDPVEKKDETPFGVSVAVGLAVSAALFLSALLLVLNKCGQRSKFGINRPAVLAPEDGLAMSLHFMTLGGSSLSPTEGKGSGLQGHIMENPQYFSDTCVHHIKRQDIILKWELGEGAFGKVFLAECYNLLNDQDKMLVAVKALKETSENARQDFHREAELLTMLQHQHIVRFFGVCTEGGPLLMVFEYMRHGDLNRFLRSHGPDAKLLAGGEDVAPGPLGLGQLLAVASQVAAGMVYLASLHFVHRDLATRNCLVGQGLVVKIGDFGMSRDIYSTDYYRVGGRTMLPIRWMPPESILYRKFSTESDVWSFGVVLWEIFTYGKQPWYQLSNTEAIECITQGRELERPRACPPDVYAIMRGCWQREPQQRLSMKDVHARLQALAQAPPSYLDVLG

Compound	differentiation of PC12 cells [1]	survival of RN22 cells (cell viability, MTT) [2]	EAE clinical severity ([3]; any of the concentrations tested (25, 50, 100 mg/kg), 26 days observation)	transaminases levels in serum [4]	EAE clinical severity ([3]; 25 mg/kg, day 0 to day 25)	EAE clinical symptoms ([3]; higher concentrations (50 and 100 mg/kg))	time of maximal TrkA phosphorylation [5]	time after addition at which p-IκBα levels were increased [6]	activation of the JNK pathway (phosphorylation of SAPK/JNK) [7]
CC(C)CCN(CC(=O)N(CCc1ccc(S(N)(=O)=O)cc1)CC(N)=O)C(=O)CNCCN1CCCC1 [N6-4-17C, [N-(2-(1-Pyrrolidinyl)ethyl)glycyl]-[N-(3-methylbutyl)glycyl]-N-[2-(4′-sulfamoylphenyl)ethyl]glycinamide]	induce the differentiation of PC12 cells at different concentrations to an extent substantially comparable with that induce by NGF	promote survival of RN22 cells	not effective in reducing the clinical severity of EAE; also recorded: no effects in EAE	elevated transaminases levels	–	–	–	–	–
CC(C)CCN(CC(=O)N(CCc1ccc(S(N)(=O)=O)cc1)CC(N)=O)C(=O)CNCCc1ccccc1F [N35-4-17C, [N-(2-(2′-Fluorophenyl)ethyl)glycyl]-[N-(3-methylbutyl)glycyl]-N-[2-(4′-sulfamoylphenyl)ethyl]glycinamide]	induce the differentiation of PC12 cells at different concentrations to an extent substantially comparable with that induce by NGF	promote survival of RN22 cells	–	elevated transaminase levels	prevents significantly the development of clinical symptoms in EAE	toxic effect worsening the development of the clinical symptoms	–	–	–
NGF: homodimeric protein from the neurotrophin family; used as positive control at 100 ng/ml	–	–	–	–	–	–	30 min	≤ 5 min	obvious
